Test system: RMA cells
Assay: Apoptosis (AnnexinV), Caspase 8 and CD95/Fas in RMA cells in culture
Type: cell-based, mice
From the text: FIGS. 5A-5I show the effects of SHIP1 inhibitor as a chemotherapeutic. […] FIG. 5D and FIG. 5E show the representative histograms and box-and-whisker plots of FasL expression by NK cells from C56BL/6 (p=0.0002; Unpaired t test with Welch's correction) or RAG1−/− (p<0.0001; Mann-Whitney U test) tumor challenged, SHIP inhibitor or vehicle treated hosts. […] (NK cells p=0.0192; Unpaired t test with Welch's correction. T cells p=0.0659; Mann-Whitney U test). Additionally, FIGS. 5A-5G show the analysis by flow cytometry on day 3 after hosts receive SHIP inhibitor or vehicle for two consecutive days. NK cells are defined as NK1.1+CD3ε−. The graphs are representative of at least two independent experiments with at least four SHIP inhibitor and vehicle treated mice. […] Viability is expressed as frequency at a given concentration expressed as a percentage of solvent only treated cells. The kill curve summarizes pooled data from three independent experiments using six replicate wells/concentration with mean ±SEM indicated (n=18 per group. One-way ANOVA with Dunnett's multiple comparisons. 0 pM vs. 20 pM Adjusted p value =0.0001. 0 pM vs. 15 pM Adjusted p value =0.0001. 0 pM vs. 10 pM Adjusted p value =0.0001. 0 pM vs. 7.5 pM Adjusted p value =0.0001. 0 pM vs. 5 pM Adjusted p value =0.0001).
NK cells are able to directly kill target cells through several different mechanisms including both production of perforin and granzymes and induction of apoptosis via Fas-FasL signaling (Arase, H. et al., Fas-mediated cytotoxicity by freshly isolated natural killer cells. J Exp Med. (1995); 181: 1235-1238; Zamai, L. et al., Natural killer (NK) cell-mediated cytotoxicity: differential use of TRAIL and Fas ligand by immature and mature primary human NK cells. J Exp Med. (1998); 188: 2375-2380). […] SHIP1 was recently shown to be recruited to CD95/Fas to set a threshold for induction of Caspase 8, and thereby, a threshold for induction of apoptosis (Park, M. Y. et al., Impaired T-cell survival promotes mucosal inflammatory disease in SHIP1-deficient mice. Mucosal Immunol. (2014); 7: 1429-1439). […]

[1] = RMA cells, culture for 12 hours

## CC(C)CCC[C@@H](C)[C@H]1CC[C@H]2[C@@H]3CCC4C[C@H](N)CC[C@]4(C)[C@H]3CC[C@]12C (stereo partly drawn) [Compound 3AC, 3-α-aminocholestane]
3AC-treated RMA cells
  frequency of death receptor CD95/Fas: increased frequency
[1]
  activation of Caspase 8: increased activation of Caspase 8
  induction of apoptosis (AnnexinV): significant induction of apoptosis

From US11952328B2, “Selective ship inhibitors for treating disease” (THE RESEARCH FOUNDATION FOR THE STATE UNIVERSITY OF NEW YORK, priority 2018, dated 2024)
